Assay results: the supplement of paper PMC10307832

Key:
Experiment in all cases: relative viability (nuclei count vs DMSO), 5 days (fraction); higher = more cells survive
[1] = compound: CC[C@H](Nc1ncnc2[nH]cnc12)c1nc2cccc(F)c2c(=O)n1-c1ccccc1 [Idelalisib] + CS(=O)(=O)CCNCc1ccc(-c2ccc3ncnc(Nc4ccc(OCc5cccc(F)c5)c(Cl)c4)c3c2)o1 [Lapatinib] (partner 2 µM)
Summary of the method: (§1)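 Dosing by pin tool came one day after lung cancer cell lines were seeded in 1536-well plates, using either one drug or a fixed anchor-drug dose plus five library-drug doses (not always all listed) in √10 steps. After 5 days, nuclei were counted on 4× images. Relative viability is treated-well nuclei count divided by vehicle-well nuclei count, and values are medians of duplicate plates.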

[2] = compound: CC[C@H](Nc1ncnc2[nH]cnc12)c1nc2cccc(F)c2c(=O)n1-c1ccccc1 [Idelalisib] + Cc1nc(NC(=O)N2CCC[C@H]2C(N)=O)sc1-c1ccnc(C(C)(C)C(F)(F)F)c1 [Alpelisib] (partner 2 µM)
Summary of the method: as §1

[3] = compound: Nc1nc2[nH]cc(CCc3ccc(C(=O)N[C@@H](CCC(=O)O)C(=O)O)cc3)c2c(=O)[nH]1 [Pemetrexed] + COc1cc2c(Oc3ccc(NC(=O)C4(C(=O)Nc5ccc(F)cc5)CC4)cc3F)ccnc2cc1OCCCN1CCOCC1 [Foretinib] (partner 0.25 µM)
Summary of the method: as §1

[4] = compound: Nc1nc2[nH]cc(CCc3ccc(C(=O)N[C@@H](CCC(=O)O)C(=O)O)cc3)c2c(=O)[nH]1 [Pemetrexed] + Cc1nc(Nc2ncc(C(=O)Nc3c(C)cccc3Cl)s2)cc(N2CCN(CCO)CC2)n1 [Dasatinib] (partner 0.075 µM)
Summary of the method: as §1

Cell Line	relative viability ([1]; first compound 0.04 µM)	relative viability ([1]; first compound 0.1265 µM)	relative viability ([1]; first compound 0.4 µM)	relative viability ([1]; first compound 1.265 µM)	relative viability ([1]; first compound 4 µM)	relative viability ([2]; first compound 0.04 µM)	relative viability ([2]; first compound 0.1265 µM)	relative viability ([2]; first compound 0.4 µM)	relative viability ([2]; first compound 1.265 µM)	relative viability ([2]; first compound 4 µM)	relative viability ([3]; first compound 0.002 µM)	relative viability ([3]; first compound 0.006325 µM)	relative viability ([3]; first compound 0.02 µM)	relative viability ([3]; first compound 0.06325 µM)	relative viability ([3]; first compound 0.2 µM)	relative viability ([4]; first compound 0.006325 µM)	relative viability ([4]; first compound 0.02 µM)	relative viability ([4]; first compound 0.06325 µM)	relative viability ([4]; first compound 0.2 µM)	relative viability ([4]; first compound 0.002 µM)
NCI-H727	0.814	1.09	0.751	1.21	0.719	0.643	0.69	0.499	0.588	0.622	0.823	0.902	0.87	0.838	0.966	0.395	0.386	0.421	0.381	
NCI-H838	0.994	1.12	0.707	0.938	0.767	0.902	1.02	0.914	0.957	0.818	1.01	0.912	1.16	0.91	0.267	0.285	0.262	0.212	0.218	0.361
NCI-H1355	1.06	1.1	0.751	0.972	0.888	0.956	0.767	0.751	0.679	0.568	0.864	0.956	1.05	1.01	0.948	0.692	0.703	0.748	0.752	0.612
NCI-H1395	1.01	0.948	0.993	0.933	0.758	1.17	0.987	0.974	1.15	0.694	0.912	0.965	1.05	0.962	0.937	0.471	0.481	0.369	0.401	0.441
NCI-H1437	0.764	0.909	0.734	0.929	0.672	0.947	1.07	0.892	0.84	0.748		1.2	1.07	0.796	0.413	0.473	0.468	0.334	0.21	
NCI-H1563	1.01	1.05	0.833	1	0.83	0.839	1.03	0.807	0.825	0.669	0.822	0.87	1.01	0.909	0.919	0.453	0.486	0.426	0.492	0.24
NCI-H1651	0.707	1	0.577	0.825	0.868	0.921	0.864	0.907	0.964	0.845	0.673	0.772	0.826	0.754	0.737	0.357	0.439	0.346	0.428	0.388
NCI-H1666	0.549	0.641	0.419	0.505	0.456	1.03	0.909	0.89	0.888	0.747	0.942	0.996	0.929	0.953	0.832	0.857	0.818	0.754	0.585	0.778
NCI-H1734	0.93	1.03	0.989	0.958	0.98	0.695	0.7	0.574	0.592	0.443	0.871	0.77	0.976	0.794	0.532	0.445	0.49	0.433	0.381	0.388
NCI-H1755	1.11	0.999	0.966	1.06	0.97	0.611	0.9	0.827	0.784	0.735	0.871	0.925	0.94	0.923	0.849	0.409	0.448	0.436	0.379	0.397
NCI-H1793	0.664	0.635	0.406	0.583	0.651	0.835	0.571	0.392	0.671	0.529	0.844	0.575	0.733	0.465	0.749	0.294	0.46	0.375	0.412	0.312
NCI-H1915	1.06	1	0.96	1.11	0.922	1.14	1.11	1.03	1.11	1.04	1.04	1.05	1.11	1.07	1.11	0.313	0.313	0.306	0.319	0.236
NCI-H1944	0.969	0.857	0.637	0.826	0.668	0.881	0.836	0.651	0.688	0.545		0.83	0.922	0.831	0.837	0.201	0.195	0.212	0.217	
NCI-H1975	0.966	0.99	0.836	0.889	0.61	0.681	0.609	0.552	0.613	0.4	0.899	0.914	1.02	0.825	0.401	0.333	0.429	0.342	0.275	0.249
NCI-H1993	0.816	0.887	0.76	0.802	0.84	0.691	0.592	0.679	0.665	0.667	0.806	0.838	0.74	0.774	0.811	0.606	0.546	0.496	0.358	0.325
NCI-H2009	0.944	1.04	0.883	0.572	0.93	1.18	1.12	1.14	1.17	1.01	1.2	1.28	1.29	1.2	1.11	0.289	0.377	0.265	0.307	0.299
